Source: article PMC11212140, “Molecular Bidents with Two Electrophilic Warheads as a New Pharmacological Modality” (ACS Central Science, 2024)

Experiments:
Test in all cases: KiNativ profiling in H3255 cells
Format in all cases: cell-based, human
PLK1 = test system: T1, PLK1; settings: 2.5 µM
T1 construct: purchased ActivX Biosciences (KiNativ)
Description: (§1) treatment. Cell viability was determined by using CellTiter-Glo (Promega #G7571) according to the manufacturer’s instructions, measuring luminescence using an Envision plate-reader (PerkinElmer Inc.). Dose-response curves were generated using non-linear regression curve fit in GraphPad Prism 9.2.0(GraphPad Software).
(§2) Cellular target engagement assays
(§3) After 6 hours treatment, cells were pelleted, washed with PBS once and lysed with IP lysis buffer (25mMTris-HCl pH 7.4, 150mM NaCl, 1 mM EDTA, 1% NP-40 and 5% glycerol) (Thermo Fisher Scientific, Cat#87788) containing protease/phosphatase inhibitor cocktail (Roche). The protein concentrations were measured by BCA analysis (Pierce). Cell lysates were incubated with 1 μM of biotin conjugated probe (bio-Osimertinib or bio-ZNL-0013) at 4 ℃ overnight, and incubated for 3 more hours at room temperature. Lysates with probe were then incubated with streptavidin beads (Thermo Fisher, #20349) for 2 hours at 4 ℃. The protein-probe complexes on the beads were then subjected to immunoblotting.
(§4) H3255 cells were plated with 6.5x10^6 per condition in fresh media in 15 cm plates and treated the 80% confluency for 2 hours with DMSO or 2.5 μM of ZNL-0056. To harvest cells, plates were washed 3 times with cold PBS, then collected by scraping into 4 mL of cold PBS containing protease and phosphatase inhibitors. Cells were pelleted by centrifugation at 1350 g at 4 ℃ for 5 minutes and immediately frozen in liquid nitrogen. The frozen samples were sent to ActivX Biosciences (La Jolla, CA) for the remainder of the KiNativ profiling experiment4.
(§5) Protein expression and purification
(§6) Human EGFR kinase domain (residues 696-1022) with T790M and V948R mutations was cloned with an N-terminal, protease cleavable His -GST tag. Recombinant protein was expressed in SF9 insect cells using baculovirus generated from the pFastBac system (Thermo Fisher) .
(§7) Briefly, cells at a density of ~2x10^6 cells/mL were infected with 1% (v/v) virus stock and grown for ~72 hours before harvesting and freezing the cell pellet . Infected cells were lysed in buffer A (50 mM Tris pH 8.0, 500 mM NaCl, 5% glycerol, 0.5 mM Tris(2-carboxyethyl)phosphine [TCEP]), ultracentrifuged at >200,000 rcf for 1 h, and the supernatant flo wed through Ni-NTA resin by gravity. The resin was washed with buffer A supplemented with 40 mM imidazole by […]

MSK1 domain1 = test system: T2, MSK1 domain1; settings: 2.5 µM; Lys2; DIKLENILLDSNGHVVLTDFGLSK
T2 construct: MSK1 domain1; purchased ActivX Biosciences (KiNativ)
Description: as §1, §2, §3, §4, §5, §6, §7

PKN1 = test system: T3, PKN1; settings: 2.5 µM; Lys1; VLLSEFRPSGELFAIKALK
T3 construct: purchased ActivX Biosciences (KiNativ)
Description: as §1, §2, §3, §4, §5, §6, §7

CK1g3 = test system: T4, CK1g3; settings: 2.5 µM; Lys2; DVKPENFLIGRPGNK
T4 construct: purchased ActivX Biosciences (KiNativ)
Description: as §1, §2, §3, §4, §5, §6, §7

MAP4K3 = test system: T5, MAP4K3; settings: 2.5 µM
T5 construct: purchased ActivX Biosciences (KiNativ)
Description: as §1, §2, §3, §4, §5, §6, §7

CCRK = test system: T6, CCRK; settings: 2.5 µM; Lys2; DLKPANLLISASGQLK
T6 construct: purchased ActivX Biosciences (KiNativ)
Description: as §1, §2, §3, §4, §5, §6, §7

VRK2 = test system: T7, VRK2; settings: 2.5 µM; Lys2; MLDVLEYIHENEYVHGDIKAANLLLGYK
T7 construct: purchased ActivX Biosciences (KiNativ)
Description: as §1, §2, §3, §4, §5, §6, §7

CHK2 = test system: T8, CHK2; settings: 2.5 µM
T8 construct: purchased ActivX Biosciences (KiNativ)
Description: as §1, §2, §3, §4, §5, §6, §7

PKCa, PKCg = settings: 2.5 µM; Other; NLIPMDPNGLSDPYVKLK
Description: as §1, §2, §3, §4, §5, §6, §7

MRCKb = test system: T9, MRCKb; settings: 2.5 µM; Lys2; DIKPDNVLLDVNGHIR
T9 construct: purchased ActivX Biosciences (KiNativ)
Description: as §1, §2, §3, §4, §5, §6, §7

PKD3 = test system: T10, PKD3; settings: 2.5 µM
T10 construct: purchased ActivX Biosciences (KiNativ)
Description: as §1, §2, §3, §4, §5, §6, §7

YANK3 = test system: T11, YANK3; settings: 2.5 µM; Lys2; DVKPDNILLDER
T11 construct: purchased ActivX Biosciences (KiNativ)
Description: as §1, §2, §3, §4, §5, §6, §7

DGKA = test system: T12, DGKA; settings: 2.5 µM; ATP; IDPVPNTHPLLVFVNPKSGGK
T12 construct: purchased ActivX Biosciences (KiNativ)
Description: as §1, §2, §3, §4, §5, §6, §7

TAO2 = test system: T13, TAO2; settings: 2.5 µM; Lys2; DVKAGNILLSEPGLVK
T13 construct: purchased ActivX Biosciences (KiNativ)
Description: as §1, §2, §3, §4, §5, §6, §7

STLK5 = test system: T14, STLK5; settings: 2.5 µM
T14 construct: purchased ActivX Biosciences (KiNativ)
Description: as §1, §2, §3, §4, §5, §6, §7

CaMK2d = test system: T15, CaMK2d; settings: 2.5 µM; Lys1; IPTGQEYAAKIINTKK
T15 construct: purchased ActivX Biosciences (KiNativ)
Description: as §1, §2, §3, §4, §5, §6, §7

MASTL = test system: T16, MASTL; settings: 2.5 µM
T16 construct: purchased ActivX Biosciences (KiNativ)
Description: as §1, §2, §3, §4, §5, §6, §7

MAP3K6 = test system: T17, MAP3K6; settings: 2.5 µM; Lys2; DIKGDNVLINTFSGLLK
T17 construct: purchased ActivX Biosciences (KiNativ)
Description: as §1, §2, §3, §4, §5, §6, §7

AKT1 = test system: T18, AKT1; settings: 2.5 µM; ATP Loop; GTFGKVILVK
T18 construct: purchased ActivX Biosciences (KiNativ)
Description: as §1, §2, §3, §4, §5, §6, §7

PDK1 = test system: T19, PDK1; settings: 2.5 µM; Lys1; EYAIKILEK
T19 construct: purchased ActivX Biosciences (KiNativ)
Description: as §1, §2, §3, §4, §5, §6, §7

CaMK1a = test system: T20, CaMK1a; settings: 2.5 µM; Lys1; LVAIKCIAK
T20 construct: purchased ActivX Biosciences (KiNativ)
Description: as §1, §2, §3, §4, §5, §6, §7

MARK2 = test system: T21, MARK2; settings: 2.5 µM; Lys1; EVAVKIIDKTQLNSSSLQK
T21 construct: purchased ActivX Biosciences (KiNativ)
Description: as §1, §2, §3, §4, §5, §6, §7

MAP3K5 = test system: T22, MAP3K5; settings: 2.5 µM; Lys2; DIKGDNVLINTYSGVLK
T22 construct: purchased ActivX Biosciences (KiNativ)
Description: as §1, §2, §3, §4, §5, §6, §7

AurA, AurB, AurC = settings: 2.5 µM; ATP Loop; GKFGNVYLAR
Description: as §1, §2, §3, §4, §5, §6, §7

[1] = Activation Loop, YSVKVLPWLSPEVLQQNLQGYDAK

Row | Compound | Inhibition (PLK1; Lys1, CFEISDADTKEVFAGKIVPK) | Inhibition (PLK1; Lys2, DLKLGNLFLNEDLEVK) | Inhibition (MSK1 domain1) | Inhibition (PKN1) | Inhibition (CK1g3) | Inhibition (MAP4K3; Lys1, NVNTGELAAIKVIK) | Inhibition (MAP4K3; Lys2, DIKGANILLTDNGHVK) | Inhibition (CCRK) | Inhibition (VRK2) | Inhibition (CHK2; Lys1, VAIKIISK) | Inhibition (CHK2; Lys2, DLKPENVLLSSQEEDCLIK) | Inhibition (PKCa, PKCg) | Inhibition (MRCKb) | Inhibition (PKD3; Lys1, DVAIKVIDK) | Inhibition (PKD3; Lys2, NIVHCDLKPENVLLASAEPFPQVK) | Inhibition (YANK3) | Inhibition (DGKA) | Inhibition (TAO2) | Inhibition (STLK5; [1]) | Inhibition (STLK5; Lys2, SVKASHILISVDGK) | further results
1 | C=CC(=O)Nc1cc(Nc2nccc(-c3cn(C)c4ccccc34)n2)c(OC)cc1N(C)CCN(C)C [Osimertinib, osimertinib, reference compound] | 9.6% | 25.0% | -10.4% | -12.2% | 7.1% | -4.2% | 3.2% | 16.1% | 6.4% | 17.8% | 11.1% | -21.6% | -26.5% | -11.4% | -11.6% | 1.4% | -5.7% | 8.2% | 2.8% | 3.2% | Inhibition (CaMK2d): -3.1%; Inhibition (MASTL; ATP Loop, GAFGKVYLGQK): 16.6%; Inhibition (MASTL; Lys1, LYAVKVVK): 23.8%; Inhibition (MAP3K6): -16.3%; Inhibition (AKT1): -19.5%; Inhibition (PDK1): -20.7%; Inhibition (CaMK1a): 7.0%; Inhibition (MARK2): 7.8%; Inhibition (MAP3K5): 21.0%; Inhibition (AurA, AurB, AurC): 20.5%
2 | C=CC(=O)Nc1cc(C(=O)Nc2nc3cccc(C)c3n2[C@@H]2CCCCN(C(=O)C=C)C2)cs1 [ZNL-0056] | 11.9% | -1.2% | 10.0% | 8.5% | 18.0% | 9.4% | 21.1% | 2.1% | 7.9% | 23.8% | 13.8% | -17.5% | 14.5% | -14.1% | 3.5% | -11.7% | 14.0% | -4.5% | -9.2% | -41.2% | Inhibition (CaMK2d): -4.1%; Inhibition (MASTL; ATP Loop, GAFGKVYLGQK): 13.0%; Inhibition (MASTL; Lys1, LYAVKVVK): 16.2%; Inhibition (MAP3K6): 20.5%; Inhibition (AKT1): -1.6%; Inhibition (PDK1): 17.6%; Inhibition (CaMK1a): 5.1%; Inhibition (MARK2): 25.2%; Inhibition (MAP3K5): -61.4%; Inhibition (AurA, AurB, AurC): 2.2%
